What was measured:
EBC-1 = experiment: cells; settings: Homo sapiens, EBC-1, 72 h
HepG2 = experiment: cells; settings: Homo sapiens, HepG2, 72 h
[1] = biological target: T1, Hepatocyte growth factor receptor (Homo sapiens, UniProt P08581); experiment: Inhibition of recombinant c-MET (unknown origin) using poly (Glu, Tyr) 4:1 as substrate after 45 mins by ELISA
[2] = biological target: Platelet-derived growth factor receptor alpha (Homo sapiens, UniProt P16234); experiment: Inhibition of PDGFRalpha (unknown origin) by HTRF method
[3] = biological target: T1, Hepatocyte growth factor receptor; settings: 0.1 mM
[4] = biological target: Vascular endothelial growth factor receptor 2 (Homo sapiens, UniProt P35968)
[5] = biological target: Proto-oncogene tyrosine-protein kinase receptor Ret (Homo sapiens, UniProt P07949); experiment: Inhibition of RET (unknown origin) by HTRF method
[6] = biological target: T2, Receptor-type tyrosine-protein kinase FLT3 (Homo sapiens, UniProt P36888); experiment: Inhibition of FLT3 (unknown origin) by HTRF method
T2 sequence (P36888 whole entry): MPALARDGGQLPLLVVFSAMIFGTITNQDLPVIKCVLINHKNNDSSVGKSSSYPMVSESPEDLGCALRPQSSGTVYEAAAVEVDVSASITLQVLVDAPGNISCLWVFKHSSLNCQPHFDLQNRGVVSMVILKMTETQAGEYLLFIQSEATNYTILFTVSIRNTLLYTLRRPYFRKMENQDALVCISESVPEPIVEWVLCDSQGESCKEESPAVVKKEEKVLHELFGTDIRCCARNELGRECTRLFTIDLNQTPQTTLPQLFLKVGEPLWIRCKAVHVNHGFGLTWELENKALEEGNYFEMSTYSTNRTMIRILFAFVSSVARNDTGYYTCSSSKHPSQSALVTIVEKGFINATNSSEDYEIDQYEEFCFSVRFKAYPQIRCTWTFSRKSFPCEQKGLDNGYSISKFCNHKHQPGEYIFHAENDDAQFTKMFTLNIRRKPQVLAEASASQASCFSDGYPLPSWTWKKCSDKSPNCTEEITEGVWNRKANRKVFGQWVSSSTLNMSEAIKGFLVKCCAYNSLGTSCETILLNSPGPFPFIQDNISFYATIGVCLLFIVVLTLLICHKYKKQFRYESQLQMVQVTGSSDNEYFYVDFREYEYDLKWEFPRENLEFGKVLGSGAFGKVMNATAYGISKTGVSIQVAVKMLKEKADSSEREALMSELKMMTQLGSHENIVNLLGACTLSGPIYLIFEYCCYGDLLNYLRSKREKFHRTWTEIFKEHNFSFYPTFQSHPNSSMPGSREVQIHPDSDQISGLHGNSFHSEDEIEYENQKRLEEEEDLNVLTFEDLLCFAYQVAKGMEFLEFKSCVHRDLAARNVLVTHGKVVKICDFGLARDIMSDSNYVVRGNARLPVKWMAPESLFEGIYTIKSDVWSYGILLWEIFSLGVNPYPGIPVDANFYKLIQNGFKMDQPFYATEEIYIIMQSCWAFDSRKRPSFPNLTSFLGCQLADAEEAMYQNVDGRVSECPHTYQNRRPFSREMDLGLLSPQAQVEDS

[7] = biological target: Mast/stem cell growth factor receptor Kit (Homo sapiens, UniProt P10721); experiment: Inhibition of KIT (unknown origin) by HTRF method
[8] = biological target: Epidermal growth factor receptor (Homo sapiens, UniProt P00533); experiment: Inhibition of EGFR (unknown origin) by HTRF method
Chain of Epidermal growth factor receptor (P00533 whole entry): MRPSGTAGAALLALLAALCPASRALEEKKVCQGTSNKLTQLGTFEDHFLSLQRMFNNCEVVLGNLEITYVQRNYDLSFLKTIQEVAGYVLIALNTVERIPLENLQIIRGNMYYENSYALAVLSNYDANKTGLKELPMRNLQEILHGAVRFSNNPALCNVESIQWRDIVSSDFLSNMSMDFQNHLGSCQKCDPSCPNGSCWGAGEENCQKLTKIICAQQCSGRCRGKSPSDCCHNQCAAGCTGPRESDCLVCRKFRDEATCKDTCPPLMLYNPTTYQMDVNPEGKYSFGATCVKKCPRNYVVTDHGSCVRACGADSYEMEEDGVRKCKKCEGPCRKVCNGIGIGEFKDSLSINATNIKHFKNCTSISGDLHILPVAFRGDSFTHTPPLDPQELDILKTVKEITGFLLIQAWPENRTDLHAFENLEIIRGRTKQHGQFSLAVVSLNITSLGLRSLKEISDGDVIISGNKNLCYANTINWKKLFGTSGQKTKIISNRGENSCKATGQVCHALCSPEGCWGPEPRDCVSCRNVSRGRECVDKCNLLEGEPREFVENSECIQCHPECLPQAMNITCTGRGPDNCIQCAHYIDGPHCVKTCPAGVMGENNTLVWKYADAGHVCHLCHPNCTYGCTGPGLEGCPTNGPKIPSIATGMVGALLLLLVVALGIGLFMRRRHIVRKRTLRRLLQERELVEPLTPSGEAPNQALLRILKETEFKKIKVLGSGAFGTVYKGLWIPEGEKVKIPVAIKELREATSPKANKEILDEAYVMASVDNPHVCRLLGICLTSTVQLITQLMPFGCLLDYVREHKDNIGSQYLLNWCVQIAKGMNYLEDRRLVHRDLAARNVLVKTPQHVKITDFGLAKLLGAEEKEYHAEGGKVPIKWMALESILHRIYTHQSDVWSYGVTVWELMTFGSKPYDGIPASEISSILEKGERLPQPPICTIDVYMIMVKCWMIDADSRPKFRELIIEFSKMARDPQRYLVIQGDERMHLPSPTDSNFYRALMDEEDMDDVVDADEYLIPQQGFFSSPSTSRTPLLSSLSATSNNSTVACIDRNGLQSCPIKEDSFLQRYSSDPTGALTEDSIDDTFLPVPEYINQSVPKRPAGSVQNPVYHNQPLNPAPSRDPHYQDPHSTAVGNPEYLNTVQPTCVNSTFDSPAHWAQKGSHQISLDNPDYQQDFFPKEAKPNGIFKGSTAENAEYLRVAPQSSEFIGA

Chain of Platelet-derived growth factor receptor alpha (P16234 whole entry): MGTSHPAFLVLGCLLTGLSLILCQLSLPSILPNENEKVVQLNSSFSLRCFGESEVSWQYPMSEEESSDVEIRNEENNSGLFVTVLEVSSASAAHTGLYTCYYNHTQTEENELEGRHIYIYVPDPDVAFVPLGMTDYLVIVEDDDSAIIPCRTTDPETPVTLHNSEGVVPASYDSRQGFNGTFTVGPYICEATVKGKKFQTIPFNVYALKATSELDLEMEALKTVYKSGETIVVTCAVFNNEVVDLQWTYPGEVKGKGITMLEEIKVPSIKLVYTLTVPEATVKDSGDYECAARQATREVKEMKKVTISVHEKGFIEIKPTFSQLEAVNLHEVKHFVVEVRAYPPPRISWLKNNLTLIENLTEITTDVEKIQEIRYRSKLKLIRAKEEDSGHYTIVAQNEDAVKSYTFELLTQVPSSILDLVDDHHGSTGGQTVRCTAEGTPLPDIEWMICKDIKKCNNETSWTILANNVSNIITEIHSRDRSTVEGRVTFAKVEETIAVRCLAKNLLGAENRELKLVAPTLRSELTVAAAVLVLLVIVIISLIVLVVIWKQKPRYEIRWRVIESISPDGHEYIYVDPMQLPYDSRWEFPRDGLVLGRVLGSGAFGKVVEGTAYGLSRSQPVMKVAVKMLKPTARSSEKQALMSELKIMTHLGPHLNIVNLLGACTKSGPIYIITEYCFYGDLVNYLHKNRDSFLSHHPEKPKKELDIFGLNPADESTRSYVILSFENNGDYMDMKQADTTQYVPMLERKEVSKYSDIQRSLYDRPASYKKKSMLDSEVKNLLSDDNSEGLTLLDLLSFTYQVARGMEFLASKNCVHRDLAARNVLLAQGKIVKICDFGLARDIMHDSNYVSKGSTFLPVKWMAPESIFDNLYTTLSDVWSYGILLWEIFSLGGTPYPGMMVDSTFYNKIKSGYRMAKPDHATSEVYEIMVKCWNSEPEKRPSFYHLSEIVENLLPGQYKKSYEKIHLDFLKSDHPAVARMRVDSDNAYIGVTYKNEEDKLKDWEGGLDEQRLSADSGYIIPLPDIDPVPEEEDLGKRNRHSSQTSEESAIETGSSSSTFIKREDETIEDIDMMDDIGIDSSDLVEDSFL
T1 sequence (P08581 whole entry): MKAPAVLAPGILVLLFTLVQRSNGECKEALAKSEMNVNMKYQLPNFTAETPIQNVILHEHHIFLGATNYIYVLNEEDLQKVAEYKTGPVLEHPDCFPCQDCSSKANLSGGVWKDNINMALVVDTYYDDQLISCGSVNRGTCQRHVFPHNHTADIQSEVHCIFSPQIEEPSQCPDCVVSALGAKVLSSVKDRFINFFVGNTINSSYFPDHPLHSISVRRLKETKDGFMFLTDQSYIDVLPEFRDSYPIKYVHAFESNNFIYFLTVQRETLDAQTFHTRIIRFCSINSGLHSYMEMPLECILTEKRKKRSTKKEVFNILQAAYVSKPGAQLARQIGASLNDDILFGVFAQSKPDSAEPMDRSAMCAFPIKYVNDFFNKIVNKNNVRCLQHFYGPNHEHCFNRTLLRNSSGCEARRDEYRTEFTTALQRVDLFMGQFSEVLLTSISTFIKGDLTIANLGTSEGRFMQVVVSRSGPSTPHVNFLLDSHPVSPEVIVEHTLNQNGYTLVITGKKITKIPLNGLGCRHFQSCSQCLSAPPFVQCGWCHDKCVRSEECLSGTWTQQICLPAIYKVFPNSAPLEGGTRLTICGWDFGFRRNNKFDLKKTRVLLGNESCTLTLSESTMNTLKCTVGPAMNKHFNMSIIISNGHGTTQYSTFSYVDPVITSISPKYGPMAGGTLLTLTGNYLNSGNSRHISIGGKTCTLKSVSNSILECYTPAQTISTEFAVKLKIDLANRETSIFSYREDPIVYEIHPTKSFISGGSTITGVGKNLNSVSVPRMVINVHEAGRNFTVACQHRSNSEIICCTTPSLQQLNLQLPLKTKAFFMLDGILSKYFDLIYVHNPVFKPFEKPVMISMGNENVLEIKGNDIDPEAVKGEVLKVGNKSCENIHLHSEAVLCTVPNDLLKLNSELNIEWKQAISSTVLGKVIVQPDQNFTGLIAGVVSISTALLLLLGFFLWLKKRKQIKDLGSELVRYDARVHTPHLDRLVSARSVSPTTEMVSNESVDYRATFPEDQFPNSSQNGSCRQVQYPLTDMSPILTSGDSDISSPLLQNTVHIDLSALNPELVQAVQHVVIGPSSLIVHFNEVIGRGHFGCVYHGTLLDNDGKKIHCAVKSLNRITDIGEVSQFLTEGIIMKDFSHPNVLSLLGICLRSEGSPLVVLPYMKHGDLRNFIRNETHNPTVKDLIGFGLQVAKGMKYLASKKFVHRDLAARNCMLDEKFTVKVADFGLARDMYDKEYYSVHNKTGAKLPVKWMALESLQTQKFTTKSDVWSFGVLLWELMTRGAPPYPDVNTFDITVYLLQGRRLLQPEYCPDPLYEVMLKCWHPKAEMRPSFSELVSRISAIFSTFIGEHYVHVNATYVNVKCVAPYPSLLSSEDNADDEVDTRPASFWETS
Chain of Vascular endothelial growth factor receptor 2 (P35968 whole entry): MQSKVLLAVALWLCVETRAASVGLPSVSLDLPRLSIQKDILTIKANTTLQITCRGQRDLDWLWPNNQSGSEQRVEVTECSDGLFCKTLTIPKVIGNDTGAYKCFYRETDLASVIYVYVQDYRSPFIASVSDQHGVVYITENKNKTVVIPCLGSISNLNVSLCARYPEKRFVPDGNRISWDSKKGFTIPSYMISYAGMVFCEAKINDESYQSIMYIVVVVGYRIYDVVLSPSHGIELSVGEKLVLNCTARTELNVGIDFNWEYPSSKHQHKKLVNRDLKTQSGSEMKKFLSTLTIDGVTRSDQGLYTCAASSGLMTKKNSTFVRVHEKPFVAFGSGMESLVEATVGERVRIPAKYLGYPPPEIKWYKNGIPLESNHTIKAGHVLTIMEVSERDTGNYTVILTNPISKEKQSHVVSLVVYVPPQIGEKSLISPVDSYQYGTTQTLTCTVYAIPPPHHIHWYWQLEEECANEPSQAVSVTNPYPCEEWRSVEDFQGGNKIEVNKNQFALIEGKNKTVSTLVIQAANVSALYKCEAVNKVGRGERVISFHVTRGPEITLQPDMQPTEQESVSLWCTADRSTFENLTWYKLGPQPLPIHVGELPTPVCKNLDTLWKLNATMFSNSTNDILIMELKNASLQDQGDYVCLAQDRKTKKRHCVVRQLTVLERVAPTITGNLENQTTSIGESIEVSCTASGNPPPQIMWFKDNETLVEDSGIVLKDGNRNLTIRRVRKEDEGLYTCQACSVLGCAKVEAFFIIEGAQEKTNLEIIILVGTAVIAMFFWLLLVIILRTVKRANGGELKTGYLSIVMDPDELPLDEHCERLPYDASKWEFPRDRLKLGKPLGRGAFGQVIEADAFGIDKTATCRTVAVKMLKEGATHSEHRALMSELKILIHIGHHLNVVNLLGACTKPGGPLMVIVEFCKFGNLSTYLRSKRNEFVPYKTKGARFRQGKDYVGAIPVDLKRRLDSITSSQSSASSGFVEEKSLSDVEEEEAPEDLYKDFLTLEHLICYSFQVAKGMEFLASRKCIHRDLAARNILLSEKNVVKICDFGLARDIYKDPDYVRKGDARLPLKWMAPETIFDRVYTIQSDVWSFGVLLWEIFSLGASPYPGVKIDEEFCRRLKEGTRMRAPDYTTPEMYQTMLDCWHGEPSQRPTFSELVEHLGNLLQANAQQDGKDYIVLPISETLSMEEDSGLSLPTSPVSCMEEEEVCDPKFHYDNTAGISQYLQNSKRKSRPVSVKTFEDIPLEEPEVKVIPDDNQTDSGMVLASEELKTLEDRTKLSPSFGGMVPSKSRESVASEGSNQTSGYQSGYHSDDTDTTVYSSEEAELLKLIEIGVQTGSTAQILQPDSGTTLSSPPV

SMILES | IC50 (EBC-1) | IC50 (HepG2) | IC50 [1] | other results
Nc1nccc(Oc2ccc(NC(=O)C3(C(=O)Nc4ccc(F)cc4)CC3)cc2F)n1 | > 1 µM | > 1 µM |  | 
Nc1nccc(Oc2ccc(NC(=O)C3(C(=O)Nc4ccc(Cl)cc4)CC3)cc2F)c1Cl | 0.967 µM | > 1 µM |  | 
Nc1nccc(Oc2ccc(NC(=O)C3(C(=O)NCc4ccc(F)cc4)CC3)cc2F)n1 |  |  | > 10 µM | 
COc1cccc2c1C(=O)c1c(O)c3c(c(O)c1C2=O)C[C@@](O)(C(=O)CO)C[C@@H]3O[C@H]1C[C@H](N)[C@H](O)[C@H](C)O1 [DOXORUBICIN] | 0.305 µM | 0.0987 µM |  | 
Nc1cc(Oc2ccc(NC(=O)C3(C(=O)Nc4ccc(F)cc4)CC3)cc2F)ncn1 | > 1 µM | > 1 µM |  | 
COc1cc2nccc(Oc3ccc(NC(=O)C4(C(=O)Nc5ccc(F)cc5)CC4)cc3)c2cc1OC [CABOZANTINIB] |  |  |  | IC50 [2]: > 10 µM
Nc1nccc(Oc2ccc(NC(=O)C3(C(=O)Nc4ccc(F)cc4)CC3)cc2F)c1Cl | 0.127 µM | > 1 µM | 0.017 µM | inhibition [3]: 100%; IC50 [4]: 0.055 µM; IC50 [5]: 0.387 µM; IC50 [6]: 2.22 µM; IC50 [2]: 0.172 µM; IC50 [7]: 0.279 µM; IC50 [8]: > 1 µM
CCOc1ccn(-c2ccc(F)cc2)c(=O)c1C(=O)Nc1ccc(Oc2ccnc(N)c2Cl)c(F)c1 [BMS-777607] | 0.162 µM |  | 0.012 µM | IC50 [2]: 0.028 µM
Nc1nccc(Oc2ccc(NC(=O)C3(C(=O)Nc4cccc(F)c4)CC3)cc2F)c1Cl | > 1 µM | > 1 µM |  | 
Nc1cc(Oc2ccc(NC(=O)C3(C(=O)NCc4ccc(F)cc4)CC3)cc2F)ncn1 |  |  | > 10 µM | 
Nc1cc(Oc2ccc(NC(=O)C3(C(=O)Nc4ccc(Cl)cc4)CC3)cc2F)ncn1 | > 1 µM | > 1 µM |  | 
COc1ccc(NC(=O)C2(C(=O)Nc3ccc(Oc4cc(N)ncn4)c(F)c3)CC2)cc1 |  |  | > 10 µM | 

— ChEMBL document CHEMBL4020722, “Synthesis and evaluation of a series of pyridine and pyrimidine derivatives as type II c-Met inhibitors” (Bioorg Med Chem, 2017)
